Data published in patent publication US20230233550A1, “TREATMENT FOR THE INFLAMMATORY BOWEL DISEASE” (priority 2020, published 2023).

Experiments:
DSS-induced colitis = assay: DSS-induced colitis; type: in vivo, male C57 mice
Method: The 8 to 10 week old male C57 mice (18-20 g) were used in the study. Animals were divided into two experimental groups: vehicle control and compound of formula (Ia). Same day animals were provided 2% dextran sulfate sodium (DSS) solution in water for 7 days. Animals were treated with vehicle or compound of formula (Ia) (15 mg/kg) by oral route daily for 10 days. Body weight was recorded daily for 10 days. Disease activity score was evaluated based on stool consistency and rectal bleeding (Kim JJ et al., 2012). Relative colon length was measured. Colon myeloperoxidase (MPO) activity was estimated (Kim JJ et al., 2012).

TNBS-induced colitis = assay: TNBS-induced colitis; type: in vivo, Female BalbC mice; settings: 15 mg/kg orally, Balb/c mice
Method: Female BalbC mice (6-8 weeks old) were used in the study. Mice were sensitized by topical application of 1% trinitrobenzene sulfonic acid (TNBS) in acetone/olive oil solution (4:1). After 7 days of sensitization, mice were challenged with 2.5% TNBS solution by intra-rectal route administered 5 mL/kg of body weight under anesthesia. Mice were monitored for development of disease over 5 days. TNBS-treated mice were randomly divided into 2 groups: TNBS-control (TNBS) and TNBS + compound of formula (Ia) (15 mg/kg, orally). Treatment was started on one day before TNBS challenge (2.5 %) and continued up to day 5 after TNBS challenge (2.5%). Animals were monitored for body weight change daily for 5 days. Intestinal permeability was estimated by Evans blue method (Han ED et al., 2002).

## O=C(O)CNC(=O)c1c(O)c2ccccc2n(OCC2CC2)c1=O [Compound of formula (Ia), Desidustat]
DSS-induced colitis; 15 mg/kg oral daily for 10 days, colon myeloperoxidase activity
  reduction of colon MPO against vehicle control: 74.9 ± 5.0%
DSS-induced colitis; 15 mg/kg oral daily for 10 days, score based on stool consistency and rectal bleeding
  decrease in disease activity score when compared with vehicle control: 31.8 ± 9.8%
DSS-induced colitis; 15 mg/kg oral daily, after ten days of treatment, 2% DSS for 7 days
  increase in body weight against vehicle control: 49.0 ± 12.9%
TNBS-induced colitis; 5th day after TNBS challenge
  weight gain when compared with vehicle control: 17.4 ± 1.4%
TNBS-induced colitis; Evans blue method
  decrease in intestinal permeability when compared against vehicle control: 51.7 ± 4.4%
